Laboratory results published in publication PMC7024253, “New Napyradiomycin Analogues from Streptomyces sp. Strain CA-271078” (Marine Drugs, 2019).
pIC50: −log10 of the molar value. ≈ marks a conversion by molar mass, not a printed value. Read-outs that look alike come from different tables or passages of the source.

Legend:
E. coli ATCC 25922 = assay: Antibacterial assay against E. coli; type: cell-based, Escherichia coli; details: top concentration 96 μg/mL (64 μg/mL for 3 and 8); for MIC: Escherichia coli, ATCC25922, MIC = lowest concentration inhibiting ≥ 95% of growth; for MIC Ec: MIC = lowest concentration inhibiting ≥ 95% of growth
[1] = system: human liver adenocarcinoma cell line (HepG2); assay: Cytotoxicity assay against HepG2; type: cell-based; details: for pIC50: 10 two-fold dilutions starting at 150, 100 (3, 8) or 30.0 μg/mL (1, 5)
[2] = system: methicillin-resistant S. aureus (MRSA) MB5393; assay: Antibacterial assay against MRSA; type: cell-based, Staphylococcus aureus; details: for MIC: Staphylococcus aureus; for MIC / MIC MRSA: MIC = lowest concentration inhibiting ≥ 95% of growth after overnight incubation, top concentration 96 μg/mL (64 μg/mL for 3 and 8)
A. baumannii MB5973 = assay: Antibacterial assay against A. baumannii; type: cell-based, Acinetobacter baumannii; details: MIC = lowest concentration inhibiting ≥ 95% of growth, top concentration 96 μg/mL (64 μg/mL for 3 and 8); for MIC: Acinetobacter baumannii
A. fumigatus ATCC46645 = assay: Antifungal assay against A. fumigatus; type: cell-based, Aspergillus fumigatus; details: A. fumigatus ATCC 46645, MIC = lowest concentration inhibiting ≥ 95% of growth, top concentration 96 μg/mL (64 μg/mL for 3 and 8); for MIC: Aspergillus fumigatus, ATCC46645
M. tuberculosis H37Ra = assay: Antibacterial assay against M. tuberculosis; type: cell-based, Mycobacterium tuberculosis; details: for MIC: Mycobacterium tuberculosis; for MIC / MIC Mt: M. tuberculosis H37Ra, MIC = lowest concentration inhibiting ≥ 95% of growth, top concentration 96 μg/mL (64 μg/mL for 3 and 8)
[3] = Homo sapiens, HepG2, HepG-2 cytotoxicity
[4] = MRSA MB5393, read-out: MIC MRSA
[5] = MRSA, read-out: MIC MRSA, MRSA MB5393

## C=C(C)C(O)CCC(C)=CCC12OC(C)(C)C(O)C=C1C(=O)c1c(O)cc(O)cc1C2=O (stereo not shown) [Compound 1, Napyradiomycin A3]
E. coli ATCC 25922
  MIC: > 96 µg/mL
[1]; [3]
  pIC50: < 4.17
[2]; [4]
  MIC: > 96 µg/mL
A. baumannii MB5973
  MIC: > 96 µg/mL

## CC1(C)O[C@@]2(C[C@H]3C(C)(C)[C@@H](Cl)CC[C@]3(C)O)C(=O)c3cc(O)cc(O)c3C(=O)C2=C[C@H]1Cl [Compound 2, Napyradiomycin B7a]
A. fumigatus ATCC46645
  MIC: > 96 µg/mL
E. coli ATCC 25922
  MIC: > 96 µg/mL
[1]; HepG-2 cytotoxicity
  pIC50: 4.38
[1]; [3]
  pIC50: > 4.30
M. tuberculosis H37Ra
  MIC: 12 to 24 µg/mL (≈ 24.1 to 48.2 µM)
[2]; [5]
  MIC: 3 to 48 µg/mL (≈ 6.03 to 96.5 µM)
[2]; [4]
  MIC: 48 µg/mL (≈ 96.5 µM)
A. baumannii MB5973
  MIC: > 96 µg/mL

## CC1(C)O[C@@]2(C[C@H]3C(C)(C)[C@@H](Cl)CC[C@]3(C)O)C(=O)c3cc(O)cc(O)c3C(=O)C2=C[C@@H]1Cl [Compound 3, Napyradiomycin B7b]
A. fumigatus ATCC46645
  MIC: > 64 µg/mL
E. coli ATCC 25922
  MIC: > 64 µg/mL
[1]; [3]
  pIC50: 3.96
M. tuberculosis H37Ra
  MIC: > 64 µg/mL
[2]; [4]
  MIC: > 64 µg/mL
A. baumannii MB5973
  MIC: > 64 µg/mL

## CC1(C)O[C@@]2(C[C@H]3C(C)(C)[C@@H](Cl)CC[C@]3(C)O)C(=O)c3cc(O)cc(O)c3C(=O)[C@@]2(O)C[C@H]1Cl [Compound 4, Napyradiomycin SC]
A. fumigatus ATCC46645
  MIC: > 96 µg/mL
E. coli ATCC 25922
  MIC: > 96 µg/mL
[1]; [3]
  pIC50: 3.58
M. tuberculosis H37Ra
  MIC: 24 to 48 µg/mL (≈ 46.6 to 93.1 µM)
[2]; [4]
  MIC: > 96 µg/mL
A. baumannii MB5973
  MIC: > 96 µg/mL

## CC1=CCC23OC(C)(C)C(Cl)CC2(Cl)C(=O)c2c(cc(O)cc2C3=O)OCC(C)=CCC1 (stereo not shown) [Compound 5, Napyradiomycin D1]
E. coli ATCC 25922
  MIC: > 96 µg/mL
[1]; abstract statement
  growth-inhibitory activity against HepG2 (in words): significant growth-inhibitory activity
M. tuberculosis H37Ra
  MIC: 24 to 48 µg/mL (≈ 50.1 to 100 µM)
M. tuberculosis H37Ra; abstract statement
  growth-inhibitory activity against Mycobacterium tuberculosis (in words): significant growth-inhibitory activity
[2]; [5]
  MIC: 3 to 48 µg/mL (≈ 6.26 to 100 µM)
[2]; [4]
  MIC: 12 to 24 µg/mL (≈ 25 to 50.1 µM)
[2]; abstract statement
  growth-inhibitory activity against methicillin-resistant Staphylococcus aureus (in words): significant growth-inhibitory activity
A. baumannii MB5973
  MIC: > 96 µg/mL

## CC1(C)OC2=C(CC1Cl)C(=O)c1c(O)cc(O)cc1C2=O (stereo not drawn) [Compound 7, 3-chloro-6,8-dihydroxy-8-α-lapachone]
A. fumigatus ATCC46645
  MIC Af: >96 µg/mL
E. coli ATCC 25922
  MIC Ec: >96 µg/mL
[1]; HepG-2 cytotoxicity
  pIC50: 3.73
M. tuberculosis H37Ra
  MIC Mt: 12 to 24 µg/mL
[2]; MRSA MB5393
  MIC MRSA: 48 to 96 µg/mL
A. baumannii MB5973
  MIC Ab: >96 µg/mL

## COc1cc(O)c2c(c1)C(=O)C1=C(CC(Cl)C(C)(C)O1)C2=O (stereo not drawn) [Compound 8, 3-chloro-6-hydroxy-8-methoxy-α-lapachone]
A. fumigatus ATCC46645
  MIC Af: >64 µg/mL
E. coli ATCC 25922
  MIC Ec: >64 µg/mL
[1]; HepG-2 cytotoxicity
  pIC50: 4.52
M. tuberculosis H37Ra
  MIC Mt: >64 µg/mL
[2]; MRSA MB5393
  MIC MRSA: >64 µg/mL
A. baumannii MB5973
  MIC Ab: >64 µg/mL

## CC(=CCCC(C)=CCC12OC(C)(C)C(Cl)CC1(Cl)C(=O)c1c(O)cc(O)cc1C2=O)CO (stereo not shown) [Compound 10, 18-hydroxynapyradiomycin A1]
A. fumigatus ATCC46645
  MIC Af: >96 µg/mL
E. coli ATCC 25922
  MIC Ec: >96 µg/mL
[1]; HepG-2 cytotoxicity
  pIC50: 4.19
M. tuberculosis H37Ra
  MIC Mt: >96 µg/mL
[2]; MRSA MB5393
  MIC MRSA: 48 to 96 µg/mL
A. baumannii MB5973
  MIC Ab: >96 µg/mL

## CC1(C)O[C@@]2(C[C@H]3C(C)(C)[C@@H](Cl)CC[C@]3(C)O)C(=O)c3cc(O)cc(O)c3C(=O)[C@@]2(Cl)C[C@H]1Cl [Compound 13, napyradiomycin B4]
A. fumigatus ATCC46645
  MIC Af: >96 µg/mL
E. coli ATCC 25922
  MIC Ec: >96 µg/mL
M. tuberculosis H37Ra
  MIC Mt: 12 to 24 µg/mL
[2]; MRSA MB5393
  MIC MRSA: 12 to 24 µg/mL
A. baumannii MB5973
  MIC Ab: >96 µg/mL

## napyradiomycin A2a [Compound 11]
A. fumigatus ATCC46645
  MIC Af: >96 µg/mL
E. coli ATCC 25922
  MIC Ec: >96 µg/mL
[1]; HepG-2 cytotoxicity
  pIC50: 4.52
M. tuberculosis H37Ra
  MIC Mt: 48 to 96 µg/mL
[2]; MRSA MB5393
  MIC MRSA: 12 to 24 µg/mL
A. baumannii MB5973
  MIC Ab: >96 µg/mL

## napyradiomycin A2b [Compound 12]
A. fumigatus ATCC46645
  MIC Af: >96 µg/mL
E. coli ATCC 25922
  MIC Ec: >96 µg/mL
[1]; HepG-2 cytotoxicity
  pIC50: 4.54
M. tuberculosis H37Ra
  MIC Mt: 48 to 96 µg/mL
[2]; MRSA MB5393
  MIC MRSA: 12 to 24 µg/mL
A. baumannii MB5973
  MIC Ab: >96 µg/mL

## napyradiomycin B2 [Compound 14]
A. fumigatus ATCC46645
  MIC Af: >96 µg/mL
E. coli ATCC 25922
  MIC Ec: >96 µg/mL
[1]; HepG-2 cytotoxicity
  pIC50: 4.57
M. tuberculosis H37Ra
  MIC Mt: 24 to 48 µg/mL
[2]; MRSA MB5393
  MIC MRSA: 3 to 6 µg/mL
A. baumannii MB5973
  MIC Ab: >96 µg/mL

## napyradiomycin B5 [Compound 15]
A. fumigatus ATCC46645
  MIC Af: >96 µg/mL
E. coli ATCC 25922
  MIC Ec: >96 µg/mL
[1]; HepG-2 cytotoxicity
  pIC50: 4.40
M. tuberculosis H37Ra
  MIC Mt: 24 to 48 µg/mL
[2]; MRSA MB5393
  MIC MRSA: 12 to 24 µg/mL
A. baumannii MB5973
  MIC Ab: >96 µg/mL

## napyradiomycin B6 [Compound 9]
A. fumigatus ATCC46645
  MIC Af: >96 µg/mL
E. coli ATCC 25922
  MIC Ec: >96 µg/mL
[1]; HepG-2 cytotoxicity
  pIC50: 4.15
M. tuberculosis H37Ra
  MIC Mt: 12 to 24 µg/mL
[2]; MRSA MB5393
  MIC MRSA: 48 to 96 µg/mL
A. baumannii MB5973
  MIC Ab: >96 µg/mL
